The record followed here is patent publication US9371335B2, “Spirothienopyran-piperidine derivatives as ORL-1 receptor antagonists for their use in the treatment of alcohol dependence and abuse” (Eli Lilly and Company, priority 2011, dated 2016).

The subject of test [1] is msP rats. The test is described as follows: Stress-induced (yohimbine) reinstatement of ethanol-seeking in msP rats. The test is classed as in vivo, rat. As to conditions: for Reduction vs. Vehicle (lever presses, yohimbine reinstatement) / Avg Lever Presses (Drug-treated): male msP rats, 30 mg/kg oral; for Avg Lever Presses (Drug-treated): yohimbine 2.0 mg/kg ip; for stress-induced reinstatement of ethanol-seeking: msP rats, result in words. The text has this:
Stress-Induced Reinstatement in msP Rats:
Stress is a key trigger for relapse to drug- and alcohol-seeking in humans and rodents (Sinha R (2008) Chronic stress, drug use, and vulnerability to addiction. Ann N Y Acad Sci 1141:105-130), and can be modeled in rats using a stress-induced reinstatement procedure. In this procedure, stress-induced reinstatement of alcohol-seeking is elicited by administration of the alpha2 adrenoceptor antagonist yohimbine, a known pharmacological stressor (Le A D, Harding S, Juzytsch W, Funk D and Shaham Y (2005) Role of alpha-2 adrenoceptors in stress-induced reinstatement of alcohol seeking and alcohol self-administration in rats. Psychopharmacology (Berl) 179:366-373).
Male msP rats are obtained from the University of Camerino (Marche, Italy) and individually housed with ad libitum access to water and standard laboratory chow. Rats are trained to lever press for 10% ethanol in water (v/v) in standard operant chambers (MED Associates, Inc., St. Albans, Vt.) located in sound-attenuating, ventilated environmental cubicles. The chambers consist of two stainless steel and two clear Plexiglas walls. The floor grid of the operant chambers consists of 0.5 cm diameter stainless steel bars placed approximately 1.5 cm apart. Each operant chamber is equipped with a drinking reservoir 4 cm above the grid floor, with two retractable operant levers located approximately 3 cm on either side of the drinking receptacle. Fluid delivery, lever presses, and presentation of visual stimuli (illumination of a white house light) are controlled by an IBM compatible computer for offline analysis.
Rats are first trained to self-administer ethanol solution in 30-min daily operant sessions under a FR1 schedule of reinforcement, in which each response on the active lever results in delivery of 0.1 ml of ethanol. Each ethanol delivery is associated with a 5-sec time-out signalled by illumination of a white house light. Alcohol self-administration training continues until stable baseline responding is achieved. […] The procedure of each session is the same as ethanol self-administration sessions except that the lever responses are no longer reinforced. Animals are pre-treated with vehicle for 3 days before the initial administration of ORL-1 receptor antagonists in order to familiarize them with the oral administration procedure. The msP rats are then subjected to the reinstatement test conducted under the same extinction conditions. Reinstatement consists of oral administration of vehicle or test compound (3 or 30 mg/kg, n=10/group, solubilized in a 1:1 mixture of distilled water and 1M H3PO4, using gentle warming in a 45-60° C. water bath), followed 30-min later by intraperitoneal administration of yohimbine (2.0 mg/kg) 30-min before the operant session.

Test [2] concerns msP rats. The test is described as follows: Free-choice ethanol self-administration in msP rats. In kind it is in vivo, rat. As to conditions: 24 hr. How it is done:
In a separate study, male msP rats are obtained from a private colony (University of Camerino, Marche, Italy), individually-housed with food, 10% ethanol (v/v in water), and water available ad libitum, and maintained on a 12 hr. light/dark cycle. Ethanol and water are measured using graduated bottles to assess the volume of ethanol consumed (Economidou D, Fedeli A, Fardon R M, Weiss F, Massi M and Ciccocioppo R (2006) Effect of novel nociceptin/orphanin FQ-NOP receptor ligands on ethanol drinking in alcohol-preferring msP rats. Peptides 27:3299-3306.). Food intake is monitored by weighing the food receptacle. Once rats reach a stable baseline of voluntary ethanol consumption of 5-6 g/kg/day (approximately 4-5 months of age), rats are treated orally with test compounds in the dose range of 3 or 30 mg/kg in a formulation consisting of 1:1 distilled water: 1 M H3PO4 (1-5 mL/kg dose volume), one hour prior to onset of the dark cycle, using a within-subjects, crossover design (3-4 day washout between subsequent doses). Ethanol, water, and food are presented to the animals at the onset of the dark cycle, and consumption of food and fluids is measured at 2, 8, and 24 hr intervals.

As for `Cc1nn(-c2ncccc2CO)cc1CN1CCC2(CC1)OCC(F)(F)c1cc(Cl)sc12` [Compound 1, [2-[4-[(2-chloro-4,4-difluoro-spiro[5H-thieno[2,3-c]pyran-7,4′-piperidine]-1′-yl)methyl]-3-methyl-pyrazol-1-yl]-3-pyridyl]methanol], in test [1], the “Reduction vs. Vehicle (lever presses, yohimbine reinstatement)” value was 72.7%; the “Avg Lever Presses (Drug-treated)” value worked out at 4.8; the “stress-induced reinstatement of ethanol-seeking” value is listed as “reduce stress-induced reinstatement of ethanol-seeking”. Further, in test [2] (3 mg/kg oral), the “Mean EtOH Consumed in g/kg (Drug-treated)” value (“Mean EtOH Consumed in g/kg” below) was found to be 6.7 g/kg and the “Reduction vs. Vehicle (EtOH consumed)” value is listed as 8.2%. Moreover, in test [2] (30 mg/kg oral), the “Mean EtOH Consumed in g/kg” value was found to be 4.4 g/kg and the “Reduction vs. Vehicle (EtOH consumed)” value is given as 39.7%.

For `Cc1nn(-c2ncccc2F)cc1CN1CCC2(CC1)OCC(F)(F)c1cc(Cl)sc12` [Compound 2, 2-Chloro-4,4-difluoro-1′-[[1-(3-fluoro-2-pyridyl)-3-methyl-pyrazol-4-yl]methyl]spiro[5H-thieno[2,3-c]pyran-7,4′-piperidine]], in test [1], the “Reduction vs. Vehicle (lever presses, yohimbine reinstatement)” value was 69.3%; the “Avg Lever Presses (Drug-treated)” value is 5.5; the “stress-induced reinstatement of ethanol-seeking” value was “reduce stress-induced reinstatement of ethanol-seeking”. In test [2] (3 mg/kg oral), the “Mean EtOH Consumed in g/kg” value amounted to 5.6 g/kg and the “Reduction vs. Vehicle (EtOH consumed)” value is recorded as 20.0%. Besides, in test [2] (30 mg/kg oral), the “Mean EtOH Consumed in g/kg” value came to 5 g/kg and the “Reduction vs. Vehicle (EtOH consumed)” value is on record as 28.6%.
